Assays:
[1] = % encapsulation of drug into liposomes from pro-liposome gels (filtration through 200 nm filters, HPLC); assay type: physicochemical; conditions: Example 3 gel (90% PC, Tris base); average particle size of 1-5µ
Experimental: The % encapsulation of the antifungal drugs miconazole and clotrimazole was determined by filtration of the liposome dispersion and by HPLC analysis of the unfiltered and filtered solutions for drug content. The principle behind the filtration technique is that the liposomes (with encapsulated antifungal). can be passed through 200 nm filters, while unencapsulated drug particles remain too large to pass through the filters. Pro-liposome gels were prepared, containing 2.5% and 1% miconazole and 1% and 0.5% clotrimazole. […] The % encapsulation of drug would be expected to decrease if crystallisation occurred in the gels with time.
Using the method of Example 1, pro-liposome gels were made with various concentrations of amphotericin B. The % encapsulation of the amphotericin B into liposomes (in 0.1% suspensions of the gel formulations) was measured at 3 days, 1 month, 3 months and 6 months after pro-liposome preparation. The gels were stored at 4°C ;in sealed containers, protected from light (Table 4). […]

[2] = Pro-liposome gel formulation work: effect of ethanol and drug concentration on drug solubility, gel formation and gel appearance on storage; assay type: physicochemical
Experimental: Approximately 10% of the total lipid and all the ethanol were weighed into an amber glass jar and mixed until all the lipid had dispersed. The antifungal drug was added to the lipid/ethanol mixture and further mixing was carried out to break up the drug particles. The remainder of the lipid was added and mixing was continued until all the lipid had been dispersed. The glycerol was then added and stirring was continued until a homogenous gel was obtained. It was clear and translucent with a sweet pleasant taste and could be applied directly to the mucosa. From about 1% to 10% or more, but preferably about 2% to 5% of a hydrophilic polymer or natural gum can be dispersed in powder form to render the preparation muco-adhesive. Compositions utilising lipid blends or lecithins which contain 45% PC, form liposomes on conversion with water. The drug is associated with the liposomes at very high levels, ie greater than 90%.
The preparation of the pro-liposome miconazole and clotrimazole gel was as described above. Early formulation work was carried out to find: • i) A gel formulation with enough ethanol to dissolve the miconazole and clotrimazole giving the gel a translucent appearance, but with […] as to obtain an optimum viscosity profile (Table 1). • ii) A gel formulation with not too much miconazole or clotrimazole to induce crystallisation of the drug in the gel (Table 2).
At this level of ethanol, miconazole drug crystallisation was not seen in 1% and 2.5% miconazole gals.

[3] = cited from earlier work
[4] = Table 1, ethanol 5 %, 45% PC lipid 20 %, drug 1 %, glycerol 74 %
[5] = Table 2, ethanol 5 %, 45%PC 20 %, drug 1 %, glycerol 74 %
[6] = Table 2, ethanol 5 %, 45%PC 20 %, glycerol 72.5 %, drug 2.5 % (clotrimazole line prints 1)
[7] = ethanol 2.5 %, 45% PC lipid 20 %, drug 1 %, glycerol 76.5 %
[8] = ethanol 10 %, 45% PC lipid 20 %, drug 1 %, glycerol 69 %
[9] = ethanol 15 %, 45% PC lipid 20 %, drug 1 %, glycerol 64 %

Structure (SMILES)	encapsulation into liposomes formed from the pro-liposome by addition of water [1]	Initial Comments: drug solubility in ethanol + 10% of lipid [2, 4]	Initial Comments: drug solubility in ethanol + 10% of lipid [2, 5]	Initial Comments: drug solubility in ethanol + 10% of lipid [2, 6]	Initial Comments: drug solubility in ethanol + 10% of lipid [2, 7]	Initial Comments: drug solubility in ethanol + 10% of lipid [2, 8]	Initial Comments: drug solubility in ethanol + 10% of lipid [2, 9]	solubility in ethanol [3]	solubility in water [3]
C[C@@H]1[C@H](O)[C@@H](C)/C=C/C=C/C=C/C=C/C=C/C=C/C=C/[C@H](O[C@@H]2O[C@H](C)[C@@H](O)[C@H](N)[C@@H]2O)C[C@@H]2O[C@](O)(C[C@@H](O)C[C@@H](O)[C@H](O)CC[C@@H](O)C[C@@H](O)CC(=O)O[C@H]1C)C[C@H](O)[C@H]2C(=O)O [Amphotericin B, amphotericin B]	~100%	–	–	–	–	–	–	–	–
Clc1ccccc1C(c1ccccc1)(c1ccccc1)n1ccnc1 [Clotrimazole, 1-(o-chloro-a,a-diphenylbenzyl)imidazole]	–	Clotrimazole soluble in ethanol + 10% of lipid. Clear, golden gel formed with good viscosity	Clotrimazole soluble in ethanol + 10% of lipid. Clear, golden gel formed with good viscosity	Clotrimazole soluble in ethanol + 10% of lipid. Clear, golden gel formed with good viscosity	Clotrimazole insoluble in ethanol + 10% of lipid. Not enough ethanol to disperse all the lipid and form a gel	Clotrimazole soluble in ethanol + 10% of lipid. Clear, golden gel formed with runny viscosity	Clotrimazole soluble in ethanol + 10% of lipid. Clear, golden gel formed with very runny viscosity	soluble	insoluble
Clc1ccc(COC(Cn2ccnc2)c2ccc(Cl)cc2Cl)c(Cl)c1 (stereo not drawn) [Miconazole, 1-[2-dichloro-β-[2,4-dichlorobenzyl)oxyphenethyl]imidazole mononitrate]	–	Miconazole soluble in ethanol + 10% of lipid. Clear, golden gel formed with good viscosity	Miconazole soluble in ethanol + 10% of lipid. Clear, golden gel formed with good viscosity	Miconazole soluble in ethanol + 10% of lipid. Clear, golden gel formed with good viscosity	Miconazole soluble in ethanol + 10% of lipid. Not enough ethanol to disperse all the lipid and form a gel	Miconazole soluble in ethanol + 10% of lipid. Clear, golden gel formed with runny viscosity	Miconazole soluble in ethanol + 10% of lipid. Clear, golden gel formed with very runny viscosity	very soluble	very slightly soluble

— EP1035837B1, “LIPID COMPOSITIONS AND THEIR USE” (PHARES PHARMACEUTICAL RESEARCH N.V., priority 1997, dated 1999)
